# Assay results published in ChEMBL document CHEMBL3882724 (2013).
# Target: T1, CYP21 (steroid 21-hydroxylase) (Homo sapiens, UniProt P08686)
# T1 sequence (P08686 whole entry): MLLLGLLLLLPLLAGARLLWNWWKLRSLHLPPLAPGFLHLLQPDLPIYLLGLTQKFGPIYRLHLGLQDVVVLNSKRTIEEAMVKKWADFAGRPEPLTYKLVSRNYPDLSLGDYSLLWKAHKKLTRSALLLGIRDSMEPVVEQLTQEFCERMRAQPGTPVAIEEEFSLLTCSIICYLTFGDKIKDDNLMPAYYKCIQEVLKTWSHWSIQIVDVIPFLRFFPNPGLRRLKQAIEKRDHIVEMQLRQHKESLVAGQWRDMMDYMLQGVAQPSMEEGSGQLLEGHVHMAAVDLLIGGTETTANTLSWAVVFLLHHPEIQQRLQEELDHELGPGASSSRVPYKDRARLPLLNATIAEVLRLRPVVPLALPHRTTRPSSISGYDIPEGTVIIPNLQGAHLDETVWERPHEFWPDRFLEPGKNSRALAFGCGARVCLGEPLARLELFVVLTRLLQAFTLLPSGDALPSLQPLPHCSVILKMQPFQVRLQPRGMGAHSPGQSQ
# Test: Inhibition of human CYP21 transfected in HEK293 cells assessed as decrease in conversion of progesterone to 11-deoxycorticosterone preincubated for 5 hrs followed by progesterone addition measured after 20 hrs by ELISA
# Type: cell-based
# Set-up: concentration or dose not given beside the values
# Conditions: HEK293 cells transfected with human CYP21, probe progesterone
row,SMILES,inhibition at 20 h [%]
1,CCNC(=O)O[C@H]1CC[C@@]2(C)C(=CC[C@H]3C4=CC=C(c5cccnc5)[C@@]4(C)CC[C@@H]32)C1,< 10
2,CC(C)(C)C(=O)O[C@H]1CC[C@@]2(C)C(=CC[C@H]3C4=CC=C(c5cccnc5)[C@@]4(C)CC[C@@H]32)C1,10 to 50
3,C[C@]12CC[C@H](O)CC1=CC[C@@H]1[C@@H]2CC[C@]2(C)C(c3cncc(NS(C)(=O)=O)c3)=CC[C@@H]12,< 10
4,COc1cncc(C2=CC[C@H]3[C@@H]4CC[C@H]5C[C@@H](OC)CC[C@]5(C)[C@H]4CC[C@]23C)c1,10 to 50
5,CO[C@H]1CC[C@@]2(C)[C@@H](CC[C@@H]3[C@@H]2CC[C@]2(C)C(c4cnccc4C)=CC[C@@H]32)C1,10 to 50
6,C[C@]12CC[C@H]3[C@@H](CC(Nc4nccs4)C45CC4CC[C@]35C)[C@@H]1CC=C2c1cccnc1 (stereo partly specified),10 to 50
7,"C[C@]12CC[C@@H](NS(C)(=O)=O)CC1=CC[C@H]1C3CC=C(c4cccnc4)[C@@]3(C)CC[C@@H]12 (single isomer, unassigned)",10 to 50
8,CC1C[C@H]2C3=CC=C(c4cncc(C(F)F)c4)[C@@]3(C)CC[C@@H]2[C@@]2(C)CCC(=O)C=C12 (stereo partly specified),< 10
9,C[C@@]1(O)CC[C@@]2(C)C(=CC[C@@H]3[C@@H]2CC[C@]2(C)C(c4cccnc4)=CC[C@@H]32)C1,≥ 50
10,C[C@@H]1C2CC[C@@H]3[C@H](CC[C@]4(C)C(c5cncc(C(F)F)c5)=CC[C@@H]34)[C@@]2(C)CC[C@H]1O (stereo partly specified),< 10
11,C[C@]12CCC3(CO3)CC1CCC1C2CC[C@]2(C)C(c3cccnc3)=CCC12 (stereo partly specified),10 to 50
12,C[C@]12CCC(=O)C=C1C(n1ccnn1)C[C@@H]1[C@@H]2CC[C@]2(C)C(c3cccnc3)=CC[C@@H]12 (stereo partly specified),10 to 50
13,CC1C[C@H]2C3=CC=C(c4ccc(F)nc4)[C@@]3(C)CC[C@@H]2[C@@]2(C)CCC(=O)C=C12 (stereo partly specified),10 to 50
14,"C[C@@]1(O)CC[C@@]2(C)C(CCC3C4=CC=C(c5cccnc5)[C@@]4(C)CC[C@@H]32)C1 (single isomer, unassigned)",< 10
15,C[C@]12CC[C@@](O)(C3CC3)CC1CC[C@@H]1[C@@H]2CC[C@]2(C)C(c3cccnc3)=CC[C@@H]12 (stereo partly specified),10 to 50
16,C[C@]12CC[C@H](O)CC1=CC[C@@H]1[C@@H]2CC[C@]2(C)C(c3cncc(NS(=O)(=O)C(F)(F)F)c3)=CC[C@@H]12,< 10
17,C[C@]12CCNC(=O)CC1CC[C@@H]1[C@@H]2CC[C@]2(C)C(c3cncc(F)c3)=CC[C@@H]12 (stereo partly specified),10 to 50
18,C[C@]12CC[C@H]3[C@@H](CC(c4ccccc4)C4=CC(=O)CC[C@@]43C)C1=CC=C2c1cccnc1 (stereo partly specified),10 to 50
19,C[C@]12CC[C@H](NC(=O)C(F)(F)F)CC1CC[C@@H]1[C@@H]2CC[C@]2(C)C(c3cccnc3)=CC[C@@H]12 (stereo partly specified),10 to 50
20,C[C@]12CCC(=O)C=C1CC[C@@H]1[C@@H]2CC[C@]2(C)C(c3cncc(C(F)F)c3)=CC[C@@H]12,10 to 50
21,COC1CC[C@@]2(C)C(=CC[C@@H]3[C@@H]2CC[C@]2(C)C(c4cncc(C)c4)=CC[C@@H]32)C1 (stereo partly specified),< 10

row,SMILES,inhibition at 20 h [%]
1,C[C@]12CCC(O)(CCCO)CC1CC[C@@H]1[C@@H]2CC[C@]2(C)C(c3cccnc3)=CC[C@@H]12 (stereo partly specified),10 to 50
2,C[C@]12CC[C@@H](NC(=O)c3nccs3)CC1=CC[C@@H]1[C@@H]2CC[C@]2(C)C(c3cccnc3)=CC[C@@H]12,10 to 50
3,CC[C@@]1(O)CC[C@@]2(C)C(CC[C@@H]3[C@@H]2CC[C@]2(C)C(c4cccnc4)=CC[C@@H]32)C1 (stereo partly specified),< 10
4,CN1C(=O)CC[C@@]2(C)C1=CC[C@@H]1[C@@H]2CC[C@]2(C)C(c3cnccc3F)=CC[C@@H]12,10 to 50
5,CC1C[C@@H]2[C@H](CC[C@]3(C)C(c4cccnc4)=CC[C@@H]23)[C@@]2(C)CC[C@@](C)(O)CC12 (stereo partly specified),10 to 50
6,CCC(=O)O[C@H]1CC[C@@]2(C)C(=CC[C@H]3C4=CC=C(c5cccnc5)[C@@]4(C)CC[C@@H]32)C1,10 to 50
7,CCc1ccncc1C1=CC=C2[C@@H]3CCC4C[C@@H](O)CC[C@]4(C)[C@H]3CC[C@]12C (stereo partly specified),< 10
8,Cc1cncc(C2=CC=C3[C@@H]4CCC5CNC(=O)CC[C@]5(C)[C@H]4CC[C@]23C)c1 (stereo partly specified),10 to 50
9,C[C@]12CC[C@H]3[C@@H](CCC45CC4C(O)CC[C@]35C)[C@@H]1CC=C2c1cncc(F)c1 (stereo partly specified),10 to 50
10,CNC1CC[C@@]2(C)[C@@H](CC[C@@H]3[C@@H]2CC[C@]2(C)C(c4cccnc4)=CC[C@@H]32)C1 (stereo partly specified),10 to 50
11,C[C@]12CCC(=O)C=C1C(C1CC1)C[C@@H]1[C@@H]2CC[C@]2(C)C(c3cccnc3)=CC[C@@H]12 (stereo partly specified),< 10
12,Cc1ccncc1C1=CC=C2[C@@H]3CC[C@H]4CC(=O)NCC[C@]4(C)[C@H]3CC[C@]12C,10 to 50
13,CCNC(=O)N[C@@H]1CC[C@@]2(C)C(CC[C@@H]3[C@@H]2CC[C@]2(C)C(n4ccnc4)=CC[C@@H]32)C1 (stereo partly specified),≥ 50
14,CC1C(O)CC[C@@]2(C)C1CC[C@@H]1[C@@H]2CC[C@]2(C)C(c3cncc(F)c3)=CC[C@@H]12 (stereo partly specified),< 10
15,Cc1ccncc1C1=CC[C@H]2[C@@H]3CC[C@H]4CNC(=O)CC[C@]4(C)[C@H]3CC[C@]12C,10 to 50
16,Cc1cc(C2=CC[C@H]3[C@@H]4CC=C5C[C@@H](O)CC[C@]5(C)[C@H]4CC[C@]23C)cnc1F,< 10
17,CC(=O)N(C)[C@H]1CC[C@@]2(C)C(CC[C@@H]3[C@@H]2CC[C@]2(C)C(c4cccnc4)=CC[C@@H]32)C1 (stereo partly specified),10 to 50
18,C[C@]12CC[C@H]3[C@@H](CC=C4C[C@@H](OC(=O)c5ccccc5)CC[C@@]43C)C1=CC=C2c1cccnc1,10 to 50
19,CC1C[C@@H]2[C@H](CC[C@]3(C)C(c4cccnc4)=CC[C@@H]23)[C@@]2(C)CC[C@](C)(O)CC12 (stereo partly specified),10 to 50
20,COC1CC[C@@]2(C)C(=CC[C@@H]3[C@@H]2CC[C@]2(C)C(c4cccnc4)=CC[C@@H]32)C1 (stereo partly specified),< 10
21,C[C@@]1(O)CC[C@@]2(C)C(CC[C@@H]3[C@@H]2CC[C@]2(C)C(c4cccnc4)=CC[C@@H]32)C1 (stereo partly specified),< 10

row,SMILES,inhibition at 20 h [%]
1,C[C@H]1C2CC[C@@H]3[C@H](CC[C@]4(C)C(c5cncc(C(F)F)c5)=CC[C@@H]34)[C@@]2(C)CC[C@@H]1O (stereo partly specified),10 to 50
2,C[C@]12CC[C@H](O)CC1=CC[C@@H]1[C@@H]2CC[C@]2(C)C(c3cncc(C#N)c3)=CC[C@@H]12,10 to 50
3,C[C@]12CC[C@H]3[C@@H](CC=C4C[C@@H](O)CC[C@@]43C)C1=CC=C2c1cncc(Cl)c1,10 to 50
4,Cc1ccncc1C(=O)O[C@H]1CC[C@@]2(C)C(=CC[C@H]3C4=CC=C(c5cccnc5)[C@@]4(C)CC[C@@H]32)C1,10 to 50
5,CC1(C)C2=CC[C@@H]3[C@H](CC[C@]4(C)C(c5cccnc5)=CC[C@@H]34)[C@@]2(C)CCC1O (stereo partly specified),< 10
6,C[C@]1(O)CC[C@@]2(C)C(=CC[C@@H]3[C@@H]2CC[C@]2(C)C(c4cccnc4)=CC[C@@H]32)C1,≥ 50
7,C[C@]12CC[C@H]3[C@@H](CCC45CC4NC(=O)CC[C@]35C)[C@@H]1CC=C2c1cccnc1 (stereo partly specified),< 10
8,C[C@]12CC[C@H]3[C@@H](CC=C4C=CCC[C@@]43C)C1=CC=C2c1cccnc1,10 to 50
9,CCNC(=S)N[C@@H]1CC[C@@]2(C)C(=CC[C@@H]3[C@@H]2CC[C@]2(C)C(c4cccnc4)=CC[C@@H]32)C1,10 to 50
10,CCOc1cncc(C2=CC[C@H]3[C@@H]4CC[C@H]5C[C@@H](OC)CC[C@]5(C)[C@H]4CC[C@]23C)c1,10 to 50
11,"C#CC1(O)CC[C@@]2(C)C(CC[C@@H]3[C@@H]2CC[C@]2(C)C(c4cccnc4)=CC[C@@H]32)C1 (single isomer, unassigned)",10 to 50
12,CC1C[C@H]2[C@@H]3CC=C(c4cncc(F)c4)[C@@]3(C)CC[C@@H]2[C@@]2(C)CC[C@H](O)CC12O (stereo partly specified),10 to 50
13,CC1(C)C2=CC[C@@H]3[C@H](CC[C@]4(C)C(c5cccnc5)=CC[C@@H]34)[C@@]2(C)CC/C1=N\O,< 10
14,CCc1ccncc1C1=CC[C@H]2[C@@H]3CC[C@H]4CC(=O)NCC[C@]4(C)[C@H]3CC[C@]12C,10 to 50
15,CC1C[C@@H]2[C@H](CC[C@]3(C)C(c4cccnc4)=CC[C@@H]23)[C@@]2(C)C=C/C(=N\O)C=C12 (stereo partly specified),10 to 50
16,C[C@]12CC[C@H]3[C@@H](CCC4=CC(=O)CC[C@@]43C)C1=CC=C2c1cncc(Cl)c1,10 to 50
17,CC1C[C@H]2C3=CC=C(c4ccc(F)nc4)[C@@]3(C)CC[C@@H]2[C@@]2(C)CCNC(=O)C=C12 (stereo partly specified),10 to 50
18,CCc1ccncc1C1=CC=C2[C@@H]3CCC4CC(=O)NCC[C@]4(C)[C@H]3CC[C@]12C (stereo partly specified),10 to 50
19,CC1CC2[C@H](CC[C@]3(C)C(c4cccnc4)=CC[C@@H]23)[C@@]2(C)CCC(C)(O)C=C12 (stereo partly specified),10 to 50
